Measurements from PubChem BioAssay (NCI).
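Cells were grown in 96-well plates and exposed to each compound for 48 hours at five concentrations; endpoints were interpolated linearly between bracketing concentrations, or set to the highest concentration if not reached. GI50 is the concentration that inhibits growth by half. TGI: total growth inhibition.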

Assays:
Test in all cases: growth of human tumour cells (NCI), 48 h
[1] = test system: CAKI-1 renal
[2] = test system: ACHN renal
[3] = test system: SNB-19 CNS
[4] = test system: MDA-MB-231 breast
[5] = test system: HOP-92 NSCLC
[6] = test system: OVCAR-5 ovarian
[7] = test system: MALME-3M melanoma
[8] = test system: HCT-15 colon
[9] = test system: KM12 colon
[10] = test system: EKVX NSCLC

SMILES	TGI [1]	TGI [2]	TGI [3]	TGI [4]	TGI [5]	TGI [6]	TGI [7]	TGI [8]	TGI [9]	TGI [10]	GI50 [1]	GI50 [2]	GI50 [3]	GI50 [4]	GI50 [5]	GI50 [6]	GI50 [7]	GI50 [8]	GI50 [9]	GI50 [10]
CCN(C)c1nc(N(C)CC)c2nc(N(C)CC)nc(N(C)CC)c2n1	> 100 µM	> 100 µM	> 100 µM	> 100 µM	> 100 µM	> 100 µM	> 100 µM	> 100 µM	> 100 µM	> 100 µM	–	–	–	–	–	–	–	–	–	–
CC(=O)ON1CCCC(P(=O)(OCOC(=O)C(C)(C)C)OCOC(=O)C(C)(C)C)C1=O (centres undefined)	20.4 µM	13.5 µM	4.74 µM	5.04 µM	1.82 µM	20.3 µM	6.63 µM	6.71 µM	2.54 µM	11.1 µM	0.712 µM	0.596 µM	0.583 µM	0.446 µM	0.187 µM	1.94 µM	0.453 µM	0.534 µM	0.51 µM	0.94 µM
CNC(=O)c1ncccc1Nc1nc(Nc2cc3c(cc2OC)CCCN3C(=O)CN(C)C)nc2[nH]ccc12	7.22 µM	6.72 µM	11.2 µM	5.3 µM	1.98 µM	4.18 µM	7.84 µM	9.35 µM	3.04 µM	6.52 µM	2.74 µM	3.23 µM	3.49 µM	1.58 µM	0.049 µM	0.325 µM	3.65 µM	1.84 µM	0.728 µM	1.55 µM
N#CC1(c2ccc(NC(=O)c3cccnc3NCc3ccncc3)cc2)CCCC1	> 85.9 µM	> 70.9 µM	> 100 µM	52.8 µM	> 100 µM	> 91.8 µM	50.1 µM	39.3 µM	73 µM	> 100 µM	16.8 µM	12.4 µM	27.7 µM	11.3 µM	19.3 µM	22.5 µM	12.1 µM	8.12 µM	23 µM	11.8 µM
CN[C@@H](C)C(=O)N[C@H]1CN(S(=O)(=O)c2cccc(S(=O)(=O)N3CC[C@H]4CC[C@@H](C(=O)NC(c5ccccc5)c5ccccc5)N4C(=O)[C@@H](NC(=O)[C@H](C)NC)C3)c2)CC[C@H]2CC[C@@H](C(=O)NC(c3ccccc3)c3ccccc3)N2C1=O	> 100 µM	> 100 µM	43.6 µM	–	27.4 µM	39.9 µM	0.0452 µM	> 100 µM	34.3 µM	> 74 µM	58.4 µM	> 79.7 µM	21.2 µM	< 0.0157 µM	7.71 µM	18.6 µM	< 0.0104 µM	> 93.6 µM	16.7 µM	25.2 µM
O=C1c2cccc(Oc3ccccc3)c2C(=O)c2cccc(Oc3ccccc3)c21	> 100 µM	> 100 µM	72.1 µM	> 100 µM	51.2 µM	> 100 µM	> 100 µM	> 100 µM	> 100 µM	> 100 µM	> 100 µM	> 100 µM	9.56 µM	44.8 µM	8.98 µM	> 100 µM	> 100 µM	> 100 µM	> 100 µM	> 100 µM
O=C1C=C[C@H](O)[C@@]2(CO)O[C@@H]12	19.3 µM	22 µM	48.9 µM	30.1 µM	14.6 µM	29 µM	9.32 µM	30.5 µM	24.5 µM	49.9 µM	3.04 µM	9.42 µM	18.9 µM	15.5 µM	4.77 µM	15.6 µM	2.53 µM	14.3 µM	12.1 µM	9.69 µM
O=C1/C(=C\c2ccccc2)CN(C(=O)CCN2CCCCC2)C/C1=C/c1ccccc1	3.74 µM	4.29 µM	4.57 µM	3.29 µM	10.2 µM	3.96 µM	5.44 µM	4.12 µM	1.24 µM	10.6 µM	–	–	–	–	–	–	–	–	–	–
Cc1ccc(O)cc1Nc1ccnc2ccc(S(C)(=O)=O)cc12	5.12 µM	7.75 µM	> 25 µM	4.68 µM	0.245 µM	14.5 µM	9.35 µM	> 25 µM	> 25 µM	> 25 µM	0.74 µM	0.612 µM	7.66 µM	0.507 µM	0.0327 µM	1.41 µM	0.892 µM	11.4 µM	> 25 µM	11.9 µM
O=C(/C=C/C12c3ccccc3C(c3ccccc31)C1C(=O)NC(=O)C12)c1ccccn1 (centres undefined)	4.38 µM	10.3 µM	3.22 µM	4.44 µM	4.54 µM	4.54 µM	5.05 µM	3.35 µM	3.03 µM	4.93 µM	1.66 µM	2.88 µM	1.53 µM	1.49 µM	1.98 µM	2.04 µM	2.14 µM	1.17 µM	1.43 µM	1.91 µM
CCN1C(=S)N(CC)C2C1NC(=S)N2/N=C/C=C/c1ccccc1OC (centres undefined)	45.9 µM	40.5 µM	> 100 µM	10.3 µM	> 76.7 µM	35.6 µM	63 µM	> 100 µM	15.8 µM	> 100 µM	0.101 µM	0.464 µM	0.48 µM	0.521 µM	3.56 µM	0.442 µM	0.736 µM	0.267 µM	0.27 µM	0.4 µM
Nc1nc2c(c3cnccc13)C(c1ccc(Cl)c(Cl)c1)Cc1cnccc1-2 (centres undefined)	13.4 µM	4.04 µM	13.5 µM	14.8 µM	14.5 µM	17 µM	18.6 µM	11.1 µM	12.6 µM	17.5 µM	0.658 µM	0.807 µM	0.65 µM	0.937 µM	1.88 µM	2.52 µM	0.915 µM	0.409 µM	0.48 µM	0.971 µM
c1ccc(-c2[nH]ncc2-c2ccnc(-c3ccc(OCCn4ccnc4)cc3)c2)nc1	> 25 µM	> 25 µM	> 25 µM	> 25 µM	> 25 µM	> 25 µM	> 25 µM	> 25 µM	> 25 µM	> 25 µM	> 25 µM	> 25 µM	> 25 µM	> 25 µM	> 25 µM	> 25 µM	12.2 µM	22 µM	13.7 µM	> 25 µM
COc1cc(CNc2nc3cc(N)cc(N)c3nc2-c2ccccc2)cc(OC)c1	> 100 µM	47.3 µM	> 100 µM	6.09 µM	3.31 µM	29.2 µM	33.8 µM	> 100 µM	73.3 µM	8.91 µM	16 µM	9.42 µM	23.4 µM	2.08 µM	1.15 µM	5.9 µM	4.86 µM	19.3 µM	4.28 µM	2.8 µM
COCC([C@@H](O)C(O)C(=O)NCC[C@@H](C)c1nc(/C=C/CC2OC3(C[C@H](O)C2C)OC(C(C[C@H](O)C(C)[C@H](O)C(C)/C=C(C)/C(C)=C/C=C/C(C)=C/C#N)OC)[C@@H](OP(=O)(O)O)C3(C)C)co1)N(C)C (some centres undefined)	0.000325 µM	0.000394 µM	0.000343 µM	0.000562 µM	0.000316 µM	0.000345 µM	0.000316 µM	0.000462 µM	0.000331 µM	0.000326 µM	–	–	–	–	–	–	–	–	–	–
COc1ccc(C(=O)c2cc(OC)c(OC)c(OC)c2OC)cc1O	6.28 µM	> 100 µM	> 100 µM	> 100 µM	> 100 µM	> 100 µM	> 100 µM	> 100 µM	> 100 µM	> 100 µM	2.21 µM	8.94 µM	4.49 µM	5.82 µM	4.73 µM	17.5 µM	4.49 µM	3.48 µM	2.91 µM	28.6 µM
CC1=C(C(=O)Nc2ccccc2)C(c2ccc(N(C)C)cc2)C(C(=O)Nc2ccccc2)=C(C)N1	> 100 µM	> 73.6 µM	> 100 µM	> 100 µM	> 94.6 µM	99 µM	39.6 µM	15.3 µM	27.2 µM	> 100 µM	–	–	–	–	–	–	–	–	–	–
